Patent US7750135B2, “Molecular design of thermostable alcohol dehydrogenase for synthesis for chiral aromatic alcohols” (Board of Trustees of Michigan State University, priority 2007, dated 2010)
Where two headings read alike, the source gives them in different places.

Assays:
wild-type (WT) TeSADH = target: T1, wild-type (WT) TeSADH (Thermoanaerobacter brockii, UniProt P14941, A186D); assay type: biochemical, Thermoanaerobacter ethanolicus; conditions: 60° C., 1 min, 50 mM Tris-HCl pH~6.5 (ketones) or pH~8.0 (alcohols), 0.4 mM NADP(H)
T1 construct: made in house; the wild-type adhB gene sat in plasmid pADHBIM1-kan
T1 sequence (P14941 whole entry A186D): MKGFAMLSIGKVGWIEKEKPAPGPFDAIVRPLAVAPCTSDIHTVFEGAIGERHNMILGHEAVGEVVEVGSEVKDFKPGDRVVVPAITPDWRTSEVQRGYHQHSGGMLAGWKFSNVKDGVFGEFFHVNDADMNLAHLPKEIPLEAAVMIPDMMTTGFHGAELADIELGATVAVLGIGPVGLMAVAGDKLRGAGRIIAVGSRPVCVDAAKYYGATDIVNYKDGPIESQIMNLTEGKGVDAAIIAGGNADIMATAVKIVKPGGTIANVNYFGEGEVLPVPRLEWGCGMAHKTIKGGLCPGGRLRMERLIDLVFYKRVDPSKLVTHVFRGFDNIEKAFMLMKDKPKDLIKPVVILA
Procedure: (§1) J. 302:163-170), with (rac)-2-butanol, (rac)-1-phenethyl alcohol, (rac)-1-phenyl-2-propanol, (rac)-4-phenyl-2-butanol, and phenylacetone as substrates. Assays were done in the presence of 50 mM Tris-HCl [pH 8.0] and 0.4 mM NADP^+ (alcohol oxidation), or pH 6.5 and 0.4 mM NADPH (ketone reduction). Initial velocity was measured spectrophotometrically at 60° C. by following NADPH production (alcohol oxidation) or consumption (ketone reduction) at 340 nm for 1 min in a Varian Cary 300 UV/Vis spectrophotometer equipped with a Peltier heating system. The enzyme was preincubated for at least 5 min at 40° C. before being added to the assays. […] One unit of activity was defined as the amount of enzyme needed to consume or produce 1 μmol of NADPH per minute.

Y267G TeSADH = target: T2, Y267G TeSADH (Thermoanaerobacter brockii, UniProt P14941, A186D/Y267G); assay type: biochemical, Thermoanaerobacter ethanolicus; conditions: heat-treated crude extracts
T2 construct: His6 (C); made in house; host or cells: E. coli, pET24a(+); heat-treated crude extract
T2 sequence (P14941 whole entry A186D/Y267G): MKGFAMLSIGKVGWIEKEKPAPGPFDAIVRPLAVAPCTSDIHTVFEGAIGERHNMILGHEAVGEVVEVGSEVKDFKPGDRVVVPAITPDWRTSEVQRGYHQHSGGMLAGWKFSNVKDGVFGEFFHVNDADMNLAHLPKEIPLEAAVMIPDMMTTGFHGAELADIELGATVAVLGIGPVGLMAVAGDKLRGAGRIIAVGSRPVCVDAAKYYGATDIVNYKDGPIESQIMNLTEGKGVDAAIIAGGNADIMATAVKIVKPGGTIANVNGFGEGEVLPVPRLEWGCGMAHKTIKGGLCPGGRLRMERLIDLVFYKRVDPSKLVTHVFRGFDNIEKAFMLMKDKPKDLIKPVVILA
Procedure: as §1

Wild-type TeSADH [1] = target: T3, Wild-type TeSADH (Thermoanaerobacter brockii, UniProt P14941, A186D); assay type: biochemical, Thermoanaerobacter ethanolicus; parameters: made in house; the wild-type adhB gene sat in plasmid pADHBIM1-kan; conditions: heat-treated crude extracts
T3 sequence (P14941 whole entry A186D): as the sequence (P14941 whole entry A186D) above
Procedure: as §1

Wild-type TeSADH [2] = target: T3, Wild-type TeSADH; conditions: 60° C., 1 min, 50 mM Tris-HCl pH ~8.0 (alcohols) or ~6.5 (ketones), 0.4 mM NADP(H)
Procedure: At least eight substrate concentrations were used for each data set and each set was performed in triplicate.

[3] = enzyme concentration estimated by SDS-PAGE

SMILES | Activity of Y267G TeSADH (Y267G TeSADH) | Specific activity, WT (wild-type (WT) TeSADH; substrate 7.5 mM) | also measured
CC(O)c1ccccc1 (racemic) [(rac)-1-Phenethyl alcohol] | no detectable activity |  | Specific activity, WT (wild-type (WT) TeSADH; substrate 10 mM): 0.15 U(umol)/mg protein
CC(=O)CCc1ccccc1 [1a, 4-Phenyl-2-butanone] |  | 5.94 U(umol)/mg protein | Activity of wild-type TeSADH (Wild-type TeSADH [1]): only slight activity
CC(O)CCc1ccccc1 (racemic) [(rac)-4-Phenyl-2-butanol] | no detectable activity | 0.29 U(umol)/mg protein | 
CC(O)Cc1ccccc1 (racemic) [(rac)-1-phenyl-2-propanol] | no detectable activity |  | Specific activity, WT (wild-type (WT) TeSADH; substrate 10 mM): 0.14 U(umol)/mg protein
CC(=O)c1ccccc1 [Acetophenone] |  | 0.90 U(umol)/mg protein | 
CC(=O)Cc1ccccc1 [7a, 1-phenyl-2-propanone] |  | 1.02 U(umol)/mg protein | 
CCC(C)O (stereo not drawn) [2-Butanol] |  | 45.27 U(umol)/mg protein | Specific activity of wild-type TeSADH (Wild-type TeSADH [1]; [3]): ~41 U/mg; Specific activity of Y267G TeSADH (Y267G TeSADH; [3]): ~33 U/mg; Vmax (app), Wild-type TeSADH (Wild-type TeSADH [2]): 37 U/mg; Km (Wild-type TeSADH [2]; read-out: Km (app), Wild-type TeSADH): 510 µM
